The values below come from patent publication US5451573A, “Substituted cyclohexane derivatives for the treatment of diseases” (Hoechst Aktiengesellschaft, priority 1992, dated 1995).

For one test, the system named is glucose-6-phosphatase. Particulars: described in the literature; cited from earlier work.
Test [1] addresses T1, glucose-6-phosphatase system (Rattus norvegicus, UniProt F7EWB7).
T1 construct: from tissue; host or cells: liver microsomes of male Wistar rats
T1 sequence (F7EWB7 1-429): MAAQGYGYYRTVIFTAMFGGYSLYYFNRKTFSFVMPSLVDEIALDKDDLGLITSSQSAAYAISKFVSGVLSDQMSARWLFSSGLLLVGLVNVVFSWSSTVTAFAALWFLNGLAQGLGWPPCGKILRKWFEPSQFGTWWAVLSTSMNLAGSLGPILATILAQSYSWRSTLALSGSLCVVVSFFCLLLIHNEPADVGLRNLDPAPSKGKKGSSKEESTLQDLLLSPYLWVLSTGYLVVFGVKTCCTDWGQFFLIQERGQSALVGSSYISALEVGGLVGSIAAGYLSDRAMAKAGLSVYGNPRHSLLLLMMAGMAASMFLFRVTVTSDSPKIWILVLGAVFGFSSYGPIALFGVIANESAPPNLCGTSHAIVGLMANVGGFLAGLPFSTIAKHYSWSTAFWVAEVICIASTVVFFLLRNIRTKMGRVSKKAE
Kind of test: glucose-6-phosphatase enzyme test in liver microsomes (phosphate released from glucose-6-phosphate). Type of test: biochemical, male Wistar rats. Particulars: for IC50: pH 7.0, 20 min room temperature, concentration at which 50 % inhibition is printed, read-out: Concentration [M] giving Inhibition 50 [%]. The protocol: The action of the compounds according to the invention on the glucose-6-phosphatase system was investigated in an enzyme test in liver microsomes.
Fresh liver organs of male Wistar rats were used for the preparation of the microsome fraction containing the glucose-6-phosphatase and processed as described in the literature [Canfield, W. K. and Arion, W. J., J. Biol. Chem. 263, 7458-7460, (1988)]. This microsome fraction can be stored at -70° C. for at least 2 months without significant loss of activity.
The detection of the glucose-6-phosphatase activity was carried out as indicated in the literature (Arion, W. J. in Methods Enzymol. 174, Academic Press 1989, pages 58-67) by determination of the phosphate released from glucose-6-phosphate. 0.1 ml of test mixture contained glucose-6-phosphate (1 mmol/l), the test substance, 0.1 mg of microsome fraction and 100 mmol/l of HEPES buffer (4-(2-hydroxyethyl)piperazine-1-ethanesulfonic acid), pH 7.0. The reaction was started by addition of the enzyme. After 20 min had passed at room temperature, the reaction was stopped by addition of 0.2 ml of phosphate reagent. The sample was incubated at 37° C. for 30 min, and the absorption (A) of the blue color was then measured at 570 nm. The inhibitory activity of the test substance resulted by comparison with a control reaction, which contained no test substance, according to the formula [formula]
Background: Liver microsomes are vesicles of endoplasmic reticulum, rich in cytochrome P450 enzymes.

For a further test, the system named is lipoxygenase. As to conditions: M. Nishizawa et al., Chem. Pharm. Bull. 34(3), 1419 (1986); cited from earlier work.
[2] abbreviates: rat liver microsome fraction, glucose-6-phosphate 1 mmol/l.
Where [3] appears, read: Concentration 1 × 10^-3 M, rat liver microsome fraction, glucose-6-phosphate 1 mmol/l, pH 7.0, read-out: Inhibition [%].

Read-outs that look alike come from different tables or passages of the source.

Regarding `S=C=Nc1ccccc1C=Cc1ccccc1N=C=S` [2,2'-diisothiocyanatostilbene], the “non-specific inhibitor of glucose-6-phosphatase (in words)” value (shortened to “non-specific inhibitor”) in the test with glucose-6-phosphatase is on record as “non-specific inhibitors of glucose-6-phosphatase”.

As to `CC(=O)Oc1ccccc1C=Cc1ccccc1N=C=S` [2-isothiocyanato-2'-acetoxystilbene], the “non-specific inhibitor” value in the test on glucose-6-phosphatase is reported as “non-specific inhibitors of glucose-6-phosphatase”. For the molecule `O=C(O)c1cc(SSc2ccc([N+](=O)[O-])c(C(=O)O)c2)ccc1[N+](=O)[O-]` [5,5'-dithiobis-2-nitrobenzoic acid], the “non-specific inhibitor” value with glucose-6-phosphatase is “non-specific inhibitors of glucose-6-phosphatase”. For the molecule `O=C(/C=C/c1ccc(O)c(O)c1O)O[C@@H]1C[C@](O)(C(=O)O)C[C@@H](O)[C@H]1O` [Compound 1], the IC50 in test [1] (setting [2]) was found to be 0.00031 M.

`O=C(/C=C/c1cccc(O)c1O)O[C@@H]1C[C@](O)(C(=O)O)C[C@@H](O)[C@H]1O` [Compound 2]: the IC50 in test [1] (setting [2]) came to 0.00031 M.

As to `O=C(/C=C/c1cc(O)ccc1O)O[C@@H]1C[C@](O)(C(=O)O)C[C@@H](O)[C@H]1O` [Compound 3], in test [1] (setting [2]), the IC50 is 0.00068 M. On the same count and under the same terms, with `O=C(/C=C/c1ccc(O)cc1O)O[C@@H]1C[C@](O)(C(=O)O)C[C@@H](O)[C@H]1O` [Compound 4] the figure was 0.00068 M; with `COc1cc(/C=C/C(=O)O[C@@H]2C[C@](O)(C(=O)O)C[C@@H](O)[C@H]2O)ccc1O` [Compound 5], 0.00041 M; with `COc1ccc(/C=C/C(=O)O[C@@H]2C[C@](O)(C(=O)O)C[C@@H](O)[C@H]2O)cc1O` [Compound 6], 0.00046 M. Same read-out and setting: the figure for `O=C(/C=C/c1cccc(O)c1)O[C@@H]1C[C@](O)(C(=O)O)C[C@@H](O)[C@H]1O` [Compound 7] is 0.00053 M; for `O=C(/C=C/c1ccc(O)cc1)O[C@@H]1C[C@](O)(C(=O)O)C[C@@H](O)[C@H]1O` [Compound 8] it is 0.00026 M; for `O=C(/C=C/c1ccccc1O)O[C@@H]1C[C@](O)(C(=O)O)C[C@@H](O)[C@H]1O` [Compound 9] it is 0.00048 M. Usually inhibition stands for the drop in the measured response relative to a control, in per cent. Regarding `O=C(/C=C/c1ccc(O)c(F)c1)O[C@@H]1C[C@](O)(C(=O)O)C[C@@H](O)[C@H]1O` [Compound 10], in test [1] (setting [3]), the inhibition at 1000 µM was found to be 50%. In addition, the IC50 in test [1] (setting [2]) was determined as 0.001 M. As to `O=C(/C=C/c1cccnc1)O[C@@H]1C[C@](O)(C(=O)O)C[C@@H](O)[C@H]1O` [Compound 11], the inhibition at 1000 µM in test [1] (setting [3]) was determined as 20%. On to `O=C(/C=C/c1cccs1)O[C@@H]1C[C@](O)(C(=O)O)C[C@@H](O)[C@H]1O` [Compound 12], for which the IC50 in test [1] (setting [2]) was determined as 0.00038 M. On the same count and under the same terms, with `O=C(/C=C/c1ccsc1)O[C@@H]1C[C@](O)(C(=O)O)C[C@@H](O)[C@H]1O` [Compound 13] the figure was 0.00078 M. For `COc1sccc1/C=C/C(=O)O[C@@H]1C[C@](O)(C(=O)O)C[C@@H](O)[C@H]1O` [Compound 14], the inhibition at 1000 µM in test [1] (setting [3]) is 20%. For the molecule `O=C(/C=C/c1c(O)ccc2ccccc12)O[C@@H]1C[C@](O)(C(=O)O)C[C@@H](O)[C@H]1O` [Compound 15], the IC50 in test [1] (setting [2]) is 0.00046 M.

For the molecule `O=C(/C=C/c1ccc([N+](=O)[O-])cc1)O[C@@H]1C[C@](O)(C(=O)O)C[C@@H](O)[C@H]1O` [Compound 16], the inhibition at 1000 µM in test [1] (setting [3]) was 35%. For `O=C(/C=C/c1ccc(O)c(O)c1)O[C@@H]1C[C@](O)(C(=O)O)C[C@@H](O)[C@H]1O` [Compound 17, chlorogenic acid], in the test on lipoxygenase, the “inhibitor of lipoxygenase (in words)” value was “inhibitor of lipoxygenase”. In test [1], the “inhibitor of the glucose-6-phosphatase system (in words)” value is listed as “inhibitors of the glucose-6-phosphatase system”. For the same molecule, in test [1] (setting [2]), the IC50 amounted to 0.00023 M. For the molecule `COc1ccc(/C=C/C(=O)O[C@@H]2C[C@](O)(C(=O)O)C[C@@H](O)[C@H]2O)cc1OC` [Compound 17α], the IC50 in test [1] (setting [2]) was determined as 0.00068 M. For `O=C(O[C@@H]1C[C@](O)(C(=O)O)C[C@@H](O)[C@H]1O)c1ccc(OCc2ccccc2)cc1` [Compound 18], the IC50 in test [1] (setting [2]) is 0.00068 M.

With `O=C(O[C@@H]1C[C@](O)(C(=O)O)C[C@@H](O)[C@H]1O)c1ccc(O)cc1` [Compound 19], the IC50 in test [1] (setting [2]) turned out to be 0.00092 M. In the case of `O=C(/C=C/c1ccc(O)cc1)O[C@@H]1C[C@](O)(C(=O)O)[C@@H](O)[C@@H](O)[C@H]1O` [Compound 20], the inhibition at 1000 µM in test [1] (setting [3]) is 30%. Still for that read-out and setting: with `O=C(/C=C/c1ccc(O)cc1)O[C@@H]1C[C@@](O)(C(=O)O)[C@H](O)[C@@H](O)[C@H]1O` [Compound 20α] the figure was 10%. `O=C(/C=C/c1ccc(O)cc1)O[C@@H]1C[C@H](C(=O)O)C[C@@H](O)[C@H]1O` [Compound 21]: the IC50 in test [1] (setting [2]) is 0.00023 M.

Regarding `O=C(/C=C/c1ccc(O)cc1)O[C@@H]1C[C@H](C(=O)O)CC[C@H]1O` [Compound 22], the inhibition at 1000 µM in test [1] (setting [3]) was found to be 20%.

With `O=C(O)C[C@]1(O)C[C@@H](O)[C@@H](O)[C@H](OC(=O)/C=C/c2ccc(O)cc2)C1` [Compound 23], the inhibition at 1000 µM in test [1] (setting [3]) was found to be 30%.

Regarding `O=C(O)CC[C@]1(O)C[C@@H](O)[C@@H](O)[C@H](OC(=O)/C=C/c2ccc(O)cc2)C1` [Compound 24], the inhibition at 1000 µM in test [1] (setting [3]) was found to be 45%.

For the molecule `O=C(/C=C/c1ccc(O)cc1)O[C@@H]1CC(C(=O)O)=C[C@@H](O)[C@H]1O` [Compound 25], the IC50 in test [1] (setting [2]) amounted to 0.00025 M. `O=C(/C=C/c1ccc(O)cc1)N[C@@H]1CC(C(=O)O)=C[C@@H](O)[C@H]1O` [Compound 26]: in test [1] (setting [3]), the inhibition at 1000 µM was determined as 15%. Consider `COP(=O)(CC1=C[C@@H](O)[C@@H](O)[C@H](OC(=O)/C=C/c2ccc(O)cc2)C1)OC` [Compound 27], for which the inhibition at 1000 µM in test [1] (pH 7) worked out at 15%. With `O=C(/C=C/c1ccc(O)cc1)O[C@@H]1CC(CP(=O)(O)O)=C[C@@H](O)[C@H]1O` [Compound 28], the inhibition at 1000 µM in test [1] (setting [3]) was determined as 28%.

With `O=C(CCc1ccc(O)cc1)c1c(O)cc(O)cc1O[C@@H]1O[C@H](CO)[C@@H](O)[C@H](O)[C@H]1O` [phlorhizin], the “non-specific inhibitor” value in the test with glucose-6-phosphatase is recorded as “non-specific inhibitors of glucose-6-phosphatase”.
